Common to all, as to type: cell-based
One assay has as its target T1, human TLR9 (Homo sapiens, UniProt Q9NR96).
T1 construct: host or cells: HEK-Blue cells (HEK293-derived reporter line)
T1 sequence (Q9NR96 26-1032): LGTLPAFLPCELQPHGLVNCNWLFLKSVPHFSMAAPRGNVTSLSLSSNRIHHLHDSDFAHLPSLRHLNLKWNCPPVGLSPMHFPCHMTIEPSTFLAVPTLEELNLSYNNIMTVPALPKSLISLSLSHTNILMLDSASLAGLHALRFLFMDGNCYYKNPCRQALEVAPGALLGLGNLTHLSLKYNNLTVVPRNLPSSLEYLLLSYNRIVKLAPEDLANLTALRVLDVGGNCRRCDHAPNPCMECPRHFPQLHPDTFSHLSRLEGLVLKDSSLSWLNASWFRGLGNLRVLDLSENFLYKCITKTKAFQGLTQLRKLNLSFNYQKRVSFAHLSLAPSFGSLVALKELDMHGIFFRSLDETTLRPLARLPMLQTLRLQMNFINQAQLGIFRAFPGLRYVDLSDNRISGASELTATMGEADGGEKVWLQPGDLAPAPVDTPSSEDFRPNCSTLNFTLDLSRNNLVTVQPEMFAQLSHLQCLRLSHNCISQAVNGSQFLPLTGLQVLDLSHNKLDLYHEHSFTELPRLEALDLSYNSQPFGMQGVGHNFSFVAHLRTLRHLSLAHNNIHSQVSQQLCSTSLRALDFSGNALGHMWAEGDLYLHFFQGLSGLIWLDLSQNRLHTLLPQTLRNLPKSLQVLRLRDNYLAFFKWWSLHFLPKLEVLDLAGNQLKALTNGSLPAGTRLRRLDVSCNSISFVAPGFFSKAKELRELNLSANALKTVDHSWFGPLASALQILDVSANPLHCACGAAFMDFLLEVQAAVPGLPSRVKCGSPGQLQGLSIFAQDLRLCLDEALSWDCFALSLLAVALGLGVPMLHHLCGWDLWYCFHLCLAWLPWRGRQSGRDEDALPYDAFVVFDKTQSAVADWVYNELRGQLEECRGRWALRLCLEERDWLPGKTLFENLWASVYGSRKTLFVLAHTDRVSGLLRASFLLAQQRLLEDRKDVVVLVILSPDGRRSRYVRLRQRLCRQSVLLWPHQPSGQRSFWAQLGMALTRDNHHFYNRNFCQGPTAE
The experiment in a line: TLR9 inhibition reporter assay (HEK-Blue cells, secreted embryonic alkaline phosphatase reporter). A digest of the protocol: (§1)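 Agonist-driven SEAP output was measured in HEK-Blue reporter cells carrying human TLR7 (gardiquimod 7.5 μM), TLR8 (R848 15.9 μM) or TLR9 (ODN2006 5 nM). Compounds at 0.05 nM–50 μM final were added 30 min before stimulation at room temperature. After 22 h at 37 °C, percent inhibition was taken against agonist/DMSO wells and a reference inhibitor.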

The target of another assay is T2, human TLR7 (Homo sapiens, UniProt Q9NYK1).
T2 construct: host or cells: HEK-Blue cells (HEK293-derived reporter line)
T2 sequence (Q9NYK1 27-1049): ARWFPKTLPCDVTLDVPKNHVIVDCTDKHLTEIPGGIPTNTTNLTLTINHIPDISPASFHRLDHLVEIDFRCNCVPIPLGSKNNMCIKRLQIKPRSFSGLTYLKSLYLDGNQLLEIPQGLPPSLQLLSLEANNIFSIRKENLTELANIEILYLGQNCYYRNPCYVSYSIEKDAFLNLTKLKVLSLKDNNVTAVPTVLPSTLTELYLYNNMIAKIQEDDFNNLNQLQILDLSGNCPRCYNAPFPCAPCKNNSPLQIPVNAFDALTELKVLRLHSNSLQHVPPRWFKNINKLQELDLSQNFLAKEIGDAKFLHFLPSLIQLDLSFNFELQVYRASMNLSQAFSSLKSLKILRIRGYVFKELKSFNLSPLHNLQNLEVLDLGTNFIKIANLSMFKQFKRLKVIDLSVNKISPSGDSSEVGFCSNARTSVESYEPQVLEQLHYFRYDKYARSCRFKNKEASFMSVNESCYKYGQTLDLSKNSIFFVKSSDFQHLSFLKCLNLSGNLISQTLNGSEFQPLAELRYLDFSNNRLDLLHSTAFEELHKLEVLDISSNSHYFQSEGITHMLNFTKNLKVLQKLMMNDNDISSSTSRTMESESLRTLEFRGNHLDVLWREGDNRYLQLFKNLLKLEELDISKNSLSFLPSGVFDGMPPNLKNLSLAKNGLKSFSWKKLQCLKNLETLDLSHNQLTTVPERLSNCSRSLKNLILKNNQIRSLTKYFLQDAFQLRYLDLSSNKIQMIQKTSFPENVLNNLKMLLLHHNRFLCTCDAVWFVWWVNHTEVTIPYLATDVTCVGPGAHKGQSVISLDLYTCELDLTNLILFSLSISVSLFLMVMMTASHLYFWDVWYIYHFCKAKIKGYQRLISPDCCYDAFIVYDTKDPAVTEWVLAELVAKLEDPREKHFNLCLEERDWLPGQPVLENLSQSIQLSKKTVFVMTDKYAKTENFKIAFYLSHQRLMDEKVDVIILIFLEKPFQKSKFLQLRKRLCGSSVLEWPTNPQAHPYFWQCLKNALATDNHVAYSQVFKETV
The experiment in a line: TLR7 inhibition reporter assay (HEK-Blue cells, secreted embryonic alkaline phosphatase reporter). As to conditions: HEK-Blue cells overexpressing human TLR7, stimulated with gardiquimod 7.5 μM; read-out: TLR 7 IC50. A digest of the protocol:
as §1
In general terms: In a reporter assay the amount or activity of a reporter protein is the signal.

A further assay has as its target T3, human TLR8 (Homo sapiens, UniProt Q9NR97).
T3 construct: host or cells: HEK-Blue cells (HEK293-derived reporter line)
T3 sequence (Q9NR97 27-1041): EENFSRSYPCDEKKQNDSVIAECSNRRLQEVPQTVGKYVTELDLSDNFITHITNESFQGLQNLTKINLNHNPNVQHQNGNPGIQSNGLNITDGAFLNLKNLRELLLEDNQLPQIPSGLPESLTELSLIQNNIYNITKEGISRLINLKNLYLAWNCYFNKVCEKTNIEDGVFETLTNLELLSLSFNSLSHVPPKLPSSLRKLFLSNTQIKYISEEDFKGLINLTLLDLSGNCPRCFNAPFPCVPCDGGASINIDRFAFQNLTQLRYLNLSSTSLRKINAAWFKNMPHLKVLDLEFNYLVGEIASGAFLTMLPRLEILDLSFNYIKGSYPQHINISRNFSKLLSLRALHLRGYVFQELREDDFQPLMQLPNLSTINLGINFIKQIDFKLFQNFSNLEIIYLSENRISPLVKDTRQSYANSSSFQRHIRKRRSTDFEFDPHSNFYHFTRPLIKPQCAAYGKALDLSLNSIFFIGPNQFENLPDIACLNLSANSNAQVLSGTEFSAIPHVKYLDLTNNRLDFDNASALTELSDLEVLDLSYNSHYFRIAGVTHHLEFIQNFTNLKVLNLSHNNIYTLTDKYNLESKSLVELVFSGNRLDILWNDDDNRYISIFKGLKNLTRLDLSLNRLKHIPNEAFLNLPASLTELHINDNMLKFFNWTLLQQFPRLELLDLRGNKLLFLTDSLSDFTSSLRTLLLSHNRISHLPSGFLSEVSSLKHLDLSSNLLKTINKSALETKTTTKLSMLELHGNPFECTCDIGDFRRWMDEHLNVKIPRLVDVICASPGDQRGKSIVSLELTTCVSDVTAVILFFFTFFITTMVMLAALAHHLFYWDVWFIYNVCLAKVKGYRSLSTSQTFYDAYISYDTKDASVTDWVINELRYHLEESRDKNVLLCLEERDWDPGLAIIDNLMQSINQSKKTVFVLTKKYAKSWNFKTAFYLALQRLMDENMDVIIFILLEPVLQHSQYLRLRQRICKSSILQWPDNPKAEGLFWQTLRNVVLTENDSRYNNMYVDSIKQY
The experiment in a line: TLR8 inhibition reporter assay (HEK-Blue cells, secreted embryonic alkaline phosphatase reporter). As to conditions: HEK-Blue cells overexpressing human TLR8, stimulated with R848 15.9 μM; read-out: TLR 8 IC50. In a few lines: as §1

Setting [1] is: HEK-Blue cells overexpressing human TLR9, stimulated with ODN2006 5 nM, read-out: TLR 9 IC50.
Setting [2] is: HEK-Blue human TLR9 reporter cells.
The mark [3] stands for this setting: HEK-Blue cells overexpressing human TLR9, stimulated with ODN2006 5 nM, 22 hour incubation, reporter readout.

Like-named read-outs stand apart in the source and are kept apart here.

A word on the IC50: it is the midpoint of a concentration-inhibition curve.

Regarding `COc1cc(-c2nc3c(C)cc(C4CCN(C5CCN(CC(C)C)CC5)CC4)cc3n2C)cn2ncnc12` [Example 353, 6-(6-(1′-isobutyl-[1,4′-bipiperidin]-4-yl)-1,4-dimethyl-1H-benzo[d]imidazol-2-yl)-8-methoxy-[1,2,4]triazolo[1,5-a]pyridine], the IC50 on human TLR9 (setting [1]) was determined as 16 nM; against human TLR9 (setting [2]), 16 nM; on human TLR7, 100 nM; on human TLR8, 8200 nM.

Turning to `COc1cc(-c2nc3c(C)cc(C4CCN(C5CC6CCC(C5)N6C5CC5)CC4)cc3n2C)cn2ncnc12` (centres unmarked) [Example 354, 6-(6-(1-(8-cyclopropyl-8-azabicyclo[3.2.1]octan-3-yl)piperidin-4-yl)-1,4-dimethyl-1H-benzo[d]imidazol-2-yl)-8-methoxy-[1,2,4]triazolo[1,5-a]pyridine], the IC50 at human TLR9 (setting [1]) came to 85 nM; against human TLR9 (setting [2]) it was 85 nM; at human TLR7 it was 7500 nM; at human TLR8, 700 nM.

As to `COc1cc(-c2nc3c(C)cc(C4CCN(C5CC6CCC(C5)N6C(C)C)CC4)cc3n2C)cn2ncnc12` (centres unmarked) [Example 357, 6-(6-(1-(8-isopropyl-8-azabicyclo[3.2.1]octan-3-yl)piperidin-4-yl)-1,4-dimethyl-1H-benzo[d]imidazol-2-yl)-8-methoxy-[1,2,4]triazolo[1,5-a]pyridine], the IC50 worked out at 32 nM on human TLR9 (setting [1]), 32 nM at human TLR9 (setting [2]), 300 nM at human TLR7 and 7900 nM on human TLR8.

For the molecule `COc1cc(-c2nc3c(C)cc(C4CCN(C5CC6CCC(C5)N6CC5CC5)CC4)cc3n2C)cn2ncnc12` (centres unmarked) [Example 358, 6-(6-(1-(8-(cyclopropylmethyl)-8-azabicyclo[3.2.1]octan-3-yl)piperidin-4-yl)-1,4-dimethyl-1H-benzo[d]imidazol-2-yl)-8-methoxy-[1,2,4]triazolo[1,5-a]pyridine], the IC50 on human TLR9 (setting [1]) amounted to 8.1 nM; on human TLR9 (setting [2]), 8.1 nM; on human TLR7, 100 nM; at human TLR8 it was 2800 nM.

In the case of `COc1cc(-c2nc3c(C)cc(C4CCN(C5CC6CCC(C5)N6CC(C)C)CC4)cc3[nH]2)cn2ncnc12` (centres unmarked) [Example 359, 6-(6-(1-(8-isobutyl-8-azabicyclo[3.2.1]octan-3-yl)piperidin-4-yl)-4-methyl-1H-benzo[d]imidazol-2-yl)-8-methoxy-[1,2,4]triazolo[1,5-a]pyridine], the IC50 on human TLR9 (setting [1]) amounted to 76 nM; against human TLR9 (setting [2]), 76 nM; at human TLR7 it was 2900 nM; at human TLR8, 14900 nM.

For the molecule `COc1cc(-c2nc3c(C)cc(C4CCN(C5CC6CCC(C5)N6C5CC5)CC4)cc3[nH]2)cn2ncnc12` (centres unmarked) [Example 360, 6-(6-(1-(8-cyclopropyl-8-azabicyclo[3.2.1]octan-3-yl)piperidin-4-yl)-4-methyl-1H-benzo[d]imidazol-2-yl)-8-methoxy-[1,2,4]triazolo[1,5-a]pyridine], the IC50 at human TLR9 (setting [1]) is 9.7 nM; against human TLR9 (setting [2]), 9.7 nM; at human TLR7, 700 nM; at human TLR8, 26300 nM.

`Cc1cc(-c2ccc(C3CCN(C4CCOCC4)CC3)cc2)cc2c1nc(-c1ccc(S(C)(=O)=O)cc1)n2C` [Example 364, 1,4-dimethyl-2-(4-(methylsulfonyl)phenyl)-6-(4-(1-(tetrahydro-2H-pyran-4-yl)piperidin-4-yl)phenyl)-1H-benzo[d]imidazole]: the IC50 is 310 nM against human TLR9 (setting [3]), > 50000 nM on human TLR7 and > 50000 nM at human TLR8.

On to `Cc1cc(-c2ccc(C3CCN(C(C)C)CC3)nc2)cc2c1nc(-c1ccc(S(C)(=O)=O)cc1)n2C` [Example 365, 6-(6-(1-isopropylpiperidin-4-yl)pyridin-3-yl)-1,4-dimethyl-2-(4-(methylsulfonyl)phenyl)-1H-benzo[d]imidazole], for which the IC50 against human TLR9 (setting [3]) was determined as 300 nM; on human TLR7, 2100 nM; at human TLR8 it was 14200 nM.

Consider `Cc1cc(-c2ccc(N3CCC(N4CCCC4)CC3)cc2)cc2c1nc(-c1ccc(S(C)(=O)=O)cc1)n2C` [Example 367, 1,4-dimethyl-2-(4-(methylsulfonyl)phenyl)-6-(4-(4-(pyrrolidin-1-yl)piperidin-1-yl)phenyl)-1H-benzo[d]imidazole], for which the IC50 turned out to be 510 nM at human TLR9 (setting [3]), 508 nM at human TLR9 (setting [1]), 2300 nM on human TLR7 and 1900 nM at human TLR8.

Consider `Cc1cc(-c2ccc(N3CCC(N(C)C)CC3)cc2)cc2c1nc(-c1ccc(S(C)(=O)=O)cc1)n2C` [Example 368, 1-(4-(1,4-dimethyl-2-(4-(methylsulfonyl)phenyl)-1H-benzo[d]imidazol-6-yl)phenyl)-N,N-dimethylpiperidin-4-amine], for which the IC50 is 410 nM on human TLR9 (setting [3]), 414 nM at human TLR9 (setting [1]), 1400 nM at human TLR7 and 1700 nM on human TLR8.

These data come from patent US12492188B2, “1H-benzo[D]imidazole derivatives as TLR9 inhibitors for the treatment of fibrosis” (BRISTOL-MYERS SQUIBB COMPANY, priority 2020, dated 2025).
